Data set [1] relates to rat collagen induced arthritis (CIA) model. In words: Rat type II collagen induced arthritis (CIA) model, prophylactic protocol (15 days oral administration). To be noted: 200 mg/kg oral, 15 days administration, measured on day 15 (FIG. 8, FIG. 14). Type of data set: in vivo. How it is done: According to the prophylactic protocol of evaluation, the pharmaceutical composition of the present invention is administered to the animals from the time the animals are injected with arthritogen and for a number of days thereafter. In one example the pharmaceutical composition is administered to the animal for between 1 and 15 days after administration of the arthritogen. In alternate examples of the invention the pharmaceutical composition is administered for example for 7, 10, 15 or 20 days after administration of the arthritogen. The scope of the present invention extends to the administration of the pharmaceutical composition for an appropriate period of time after administration of the arthritogen that is suitable to effect prophylaxis to prevent the onset of symptoms of a harmful immune response to the arthritogen. […] The body weight of animals, together with their tail and paw swelling, were determined every 48 h, the latter parameters being determined using callipers and results expressed in millimetres (mm). Arthritis development was also assessed from day 11 onwards using a macroscopic scoring scale whereby rear paw, fore paw, and tail swelling were scored on a scale 0-4+. […]

Data set [2] shares this test system. Kind of data set: Rat type II collagen induced arthritis (CIA) model, toleragenic protocol (7 days oral pre-administration). It is filed as in vivo. To be noted: for activity as toleragens in the rat CIA model: comparative study with CaP, FIG. 8. How it is done:
In another example of the present invention, the tolerogenic protocol of evaluation of the pharmaceutical of the invention comprises administering the pharmaceutical composition to the animals prior to inducing arthritis by injection of the arthritogen. The pharmaceutical composition is administered for a period of time suitable to tolerize the animal. In one example the pharmaceutical composition is administered for 1 to 21 days prior to administration of the arthritogen. In one preferred example the pharmaceutical composition is administered for 1, 7, 10, 15 or 20 days prior to administration of the arthritogen. According to the toleragenic protocol for studying the activity of the pharmaceutical of the present invention, it is preferred that administration of the pharmaceutical composition ceases at the time that the arthritogen is administered.
Female Wistar rats (160-180 gm) were inoculated with 250 μg of the arthritogen, bovine tracheal collagen type-II dissolved in dilute acetic acid (0.01M) and applied as 6 divided injections into their tail base on day 0. The body weight of animals, together with their tail and paw swelling, were determined every 48 h, the latter parameters being determined using callipers and results expressed in millimetres (mm). Arthritis development was also assessed from day 11 onwards using a macroscopic scoring scale whereby rear paw, fore paw, and tail swelling were scored on a scale 0-4+. An overall arthritis score (0-4+) was also determined on the basis of overall inflammation and other signs of disease activity, e.g. piloerection, diminished mobility, poor grooming etc as described previously [Creamer M. et al. Collagen-induced arthritis in rats. J Immunology, 149:1045-1053, 1992]. […]

Data set [3] has as its system haemorrhagic stomach lesions produced by ibuprofen in rats with CIA. Kind of data set: Gastroprotective activity in the rat CIA model against haemorrhagic stomach lesions produced by ibuprofen. Type of data set: in vivo. How it is done:
FIG. 18 provides a table (Table 1) of the results for testing gastroprotective activity of Calcium Peptacan in the Rat CIA Arthritis Model against haemorrhagic stomach lesions produced by oral administration of the non-steroidal anti-inflammatory drug, Ibufrofen (50 mg/kg) on day 20.
As discussed earlier the chronic use of NSAIDs by OA and RA patients is frequently associated with serious side effects in the gastrointestinal tract particularly with respect the induction of gastric bleeding. This effect was confirmed in an animal model by administering 50 mg/kg of the NSAID, ibuprofen, to rats in which CIA had been ongoing for 20 days [see FIG. 18—Table 1].

For a further data set, the system named is citrated human plasma. Kind of data set: In vitro anticoagulant activity, activated partial thromboplastin time (aPTT). Type of data set: biochemical. How it is done: Pharmaceutical quality chondroitin sulfate were obtained from Bioiberica, Barcelona, Spain (ChS#1) and Sigma Chemical Co St Louis, Mo., USA (ChS#2). Calcium peptacan (CaP), and GAG-peptide (GAG-P), prepared as described herein, were evaluated for their anticoagulant activities using a commercial aPTT reagent (Actin FSL activated PTT reagent, Dade-Behring Margurg GmbH, Marburg, Germany) and a standard human plasma: (Ci-Trol Coagulation Control level 2, Dade-Behring Margurg GmbH, Marburg, Germany) according to the protocol supplied by the manufacturer. Stock solutions of the test preparations were dissolved in 0.025M calcium chloride and serially diluted in this buffer to correspond to the concentrations of 0-1.25 mg/mL. The aPTT times were determined by the addition of these solutions to a mixture of the Actin FSL reagent and control plasma held at 37° C. in cuvettes of a fibrin-timer (Dade-Behring Margurg GmbH, Marburg, Germany). This instrument quantitated the time in seconds for clot formation. All samples were assayed in duplicate and the mean values plotted against concentration using a semi-log scale.

The subject of data set [4] is type II collagen (CII) arthritis (CIA) in mice. The following applies: cited from earlier work.

“Also recorded” adds a separate entry of the source.

Consider `Cl.N[C@H]1C(O)O[C@H](CO)[C@@H](O)[C@@H]1O` (stereo partly drawn) [GmHCl, Glucosamine Hydrochloride], for which the “prophylactic effects on arthritis development (rear paw swelling, front paw inflammation, arthritis scores)” value in data set [1] is listed as “CaP was the only preparation that demonstrated anti-arthritic activity”. In data set [2], the “activity as toleragens in the rat CIA model” value is “inactive as toleragens”.

As for `N[C@H]1C(O)O[C@H](CO)[C@@H](O)[C@@H]1O.O=S(=O)(O)O` (stereo partly drawn) [GmSO4, Glucosamine Sulfate], the “prophylactic effects on arthritis development (rear paw swelling, front paw inflammation, arthritis scores)” value in data set [1] was “CaP was the only preparation that demonstrated anti-arthritic activity”. For the same compound, the “activity as toleragens in the rat CIA model” value in data set [2] is “inactive as toleragens”.

For `O=C(O)CC([S-])C(=O)O.[Au+]` (stereo not drawn) [aurothiomalate], the gastro protective effectiveness result in data set [3] (ibuprofen 50 mg/kg on day 20 of CIA, dose of test substance not given) was “only marginally effective”.

For `CC(C)Cc1ccc(C(C)C(=O)O)cc1` (stereo not drawn) [ibuprofen], in data set [3] (50 mg/kg to rats in which CIA had been ongoing for 20 days), the “induction of gastric bleeding” value is on record as “confirmed”.

In the case of chondroitin sulfate [ChS #1], the “anticoagulant effect (aPTT)” value with citrated human plasma (citrated human plasma, 0-1.25 mg/mL (FIG. 17)) was “strongest anticoagulant effect”.

For the compound chondroitin sulfate [ChS], the “delayed-type hypersensitivity (DTH) reaction” value in data set [4] (at any dose (100, 300, 1000 mg/kg), mice) is recorded as “no effect”. For the same compound, the “severity of the disease (hind paw oedema, synovitis, destruction of the articular cartilage)” value in data set [4] (only at the highest dose, 1000 mg/kg oral, mice) is on record as “significantly reduced”. Also, in data set [4] (oral doses of 100, 300 and 1000 mg/kg for 14 days prior to inducing CIA in mice), the incidence of arthritis entry is “failed to prevent the incidence of arthritis”. Moreover, in the data set on citrated human plasma (aPTT (FIG. 17)), the “concentration range over which anti-coagulant activity was exhibited” value fell in the range of 0.4 to 1.2 mg/mL. The “toleragenic effects on arthritis development (rear paw swelling, front paw inflammation, arthritis scores)” value in data set [2] (20 mg/kg oral, 7 days pre-administration, measured on day 15 (FIG. 7, FIG. 9)) is “inactive as a toleragen; also recorded: no activity”.

These data come from patent US20080200372A1, “Glycosaminoglycan Peptides Derived From Connective Tissues And Use Thereof In The Prevention Of Arthritis And Other Degenerative Medical Conditions” (Institute of Nutraceutical Research Pty Ltd., priority 2004, published 2008).
